What was measured:
[1] = tested on: WiDr-R cells (colon cancer cells; chemically-induced SF3B1 R1074H mutant); conditions: R1074H mutation; cited from earlier work
[2] = from C=CC[C@@](C)(CCCCC(=O)O[C@H](/C(C)=C/I)[C@@H](C)C=C)O[Si](CC)(CC)CC; rcm bond; Hoveyda-Grubbs catalyst; toluene; 4.0 mM; 50.0 °C; 2.0 h
[3] = tested on: WiDr cells (colon cancer cells; wildtype SF3B1); assay: Cell viability assay (CellTiter-Glo, 72 hr), WiDr cells; format: cell-based; conditions: Homo sapiens; WiDr cells (wildtype SF3B1); read-out: WiDr GI50
Procedure, shortened: (§1)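 Cells at 2000/well were exposed to 9 compound concentrations (0.1% DMSO) in duplicate or triplicate for 72 hr at 37 °C. ATP was read by CellTiter-Glo against a time-zero plate and DMSO control growth. Percent growth/viability was plotted against concentration to give Emax; negative values indicate lethality.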

[4] = tested on: Panc 05.04 cells (pancreatic cancer cells; Q699H and K700E mutations in SF3B1); assay: Cell viability assay (CellTiter-Glo, 72 hr), Panc 05.04 cells; format: cell-based; conditions: Panc 05.04 cells (mutant SF3B1); for Emax: maximum achievable response in tested dose range, negative value = cellular lethality, read-out: Panc 05.04 (mt SF3B1 cells) Emax (%); for GI50: read-out: Panc 05.04 (mt SF3B1 cells), GI50
Procedure, shortened: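 Viability was read as ATP content (CellTiter-Glo) after 72 hr compound exposure of Panc 05.04 cells at 37 °C, nine concentrations, 0.1% DMSO. Percentage growth was referenced to time-zero and vehicle wells and plotted against concentration to obtain Emax; negative Emax denotes cell killing.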

[5] = tested on: WiDr-R cells (colon cancer cells; chemically-induced SF3B1 R1074H mutant); assay: Cell viability assay (CellTiter-Glo, 72 hr), resistant WiDr-R cells (counter-screen); format: cell-based; conditions: WiDr-R cells (SF3B1 R1074H mutation, resistant); read-out: WiDr-R GI50
Procedure, shortened: as §1

SF3b complexes = target: T1, SF3b complexes (Homo sapiens, UniProt O75533+Q7RTV0); assay: Scintillation proximity assay (SPA) with [3H]-labelled pladienolide probe; format: binding; conditions: wt SF3B1, read-out: SPA (wt SF3B1 cells) IC50
T1 construct: endogenous in cells
Procedure, shortened: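 SF3b complexes immunoprecipitated from nuclear extracts with anti-SF3B1 antibody on anti-mouse PVT SPA beads. Beads pre-incubated 30 min with varying PB or PB-OH, then 2.5 nM [3H]-PB added for 30 min; scintillation signal read and fit by non-linear regression.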

[6] = in vivo; cited from earlier work

Compound	resistance of WiDr-R cells in terms of growth inhibition [1]	ring closure, yield of all isomers [2]	GI50 [3]	Emax [4]	GI50 [4]	GI50 [5]	IC50 (SF3b complexes)	plasma half-life [6]
CCC(O)C(C)C1OC1CC(C)(O)/C=C/C=C(\C)C1OC(=O)CC(O)CCC(C)(O)C(OC(=O)N2CCN(C3CCCCCC3)CC2)/C=C/C1C (stereo not drawn) [Compound E7107, (8E,12E,14E)-7-((4-Cycoheptylpiperazin-1-yl)carbonyl)oxy-3,6,16,21-tetrahydroxy-6,10,12,16,20-pentamethyl-18,19-epoxytricosa-8,12,14-trien-11-olide]	resistant	–	–	–	–	–	–	–
CC[Si](CC)(CC)O[C@@]1(C)CC=C[C@H](C)[C@@H](/C(C)=C/I)OC(=O)CCCC1	–	53%	–	–	–	–	–	–
C/C(=C\C=C\[C@@H](C)COC(=O)N1CC[C@@H](O)C1)[C@H]1OC(=O)C[C@H](O)CC[C@@](C)(O)[C@@H](OC(=O)N2CCN(C3CCCCCC3)CC2)/C=C/[C@@H]1C	–	–	5.56 nM	-84.5%	5.51 nM	> 1000 nM	7.66 nM	–
C/C(=C\C=C\[C@@H](C)c1ccccn1)[C@H]1OC(=O)C[C@H](O)CC[C@@](C)(O)[C@@H](OC(=O)N2CCOCC2)/C=C/[C@@H]1C	–	–	> 1000 nM	35.3%	2550 nM	> 1000 nM	480 nM	–
C/C(=C\C=C\[C@H](C)c1cccnc1)[C@H]1OC(=O)C[C@H](O)CC[C@@](C)(O)[C@@H](OC(=O)N2CCN(C3CCCCCC3)CC2)/C=C/[C@@H]1C	–	–	29.4 nM	-94.2%	20.4 nM	> 1000 nM	2.56 nM	–
C/C(=C\C=C\C(C)c1ncccc1C)[C@H]1OC(=O)C[C@H](O)CC[C@@](C)(O)[C@@H](OC(=O)N2CCN(C3CCCCCC3)CC2)/C=C/[C@@H]1C (stereo partly drawn)	–	–	15.8 nM	-92.3%	21.2 nM	> 1000 nM	6.26 nM	–
CCN(CC)C(=O)OC[C@H](C)/C=C/C=C(\C)[C@H]1OC(=O)C[C@H](O)CC[C@@](C)(O)[C@@H](OC(C)=O)/C=C/[C@@H]1C	–	–	21.2 nM	-92.2%	25 nM	> 10000 nM	2.4 nM	–
CC(=O)O[C@H]1/C=C/[C@H](C)[C@@H](/C(C)=C/C=C/[C@@H](C)COC(=O)N(C)C)OC(=O)C[C@H](O)CC[C@@]1(C)O	–	–	46.7 nM	-91.2%	74.4 nM	> 10000 nM	18 nM	–
tremelimumab	–	–	–	–	–	–	–	approximately 22 days
C/C(=C\C=C\[C@@H](C)CCC(=O)N1CCCC1)[C@H]1OC(=O)C[C@H](O)CC[C@@](C)(O)[C@@H](OC(=O)N2CCN(C3CCCCCC3)CC2)/C=C/[C@@H]1C	–	–	12.7 nM	-86.9%	3.25 nM	> 1000 nM	5.11 nM	–
C/C(=C\C=C\[C@@H](C)c1ccccn1)[C@H]1OC(=O)CCCCC[C@@H](OC(=O)N2CCN(C)CC2)/C=C/[C@@H]1C	–	–	67.1 nM	-93.5%	75.1 nM	> 10000 nM	7.9 nM	–
C/C(=C\C=C\[C@@H](C)COC(=O)N1CCCC1)[C@H]1OC(=O)C[C@@H](O)CC[C@](C)(O)[C@@H](OC(=O)N2CCN(C)CC2)/C=C/[C@@H]1C	–	–	15.2 nM	-90.2%	6.55 nM	> 1000 nM	47.8 nM	–
C/C(=C\C=C\[C@@H](C)c1cccnc1)[C@H]1OC(=O)C[C@H](O)CC[C@@](C)(O)[C@@H](OC(=O)N2CCN(C3CCCCCC3)CC2)/C=C/[C@@H]1C	–	–	13.2 nM	-95.6%	11 nM	> 1000 nM	2.34 nM	–
C/C(=C\C=C\[C@H](C)c1ccccn1)[C@H]1OC(=O)C[C@H](O)CC[C@@](C)(O)[C@@H](OC(=O)N2CCN(C)CC2)/C=C/[C@@H]1C	–	–	34.3 nM	-49.2%	53.6 nM	> 1000 nM	5.69 nM	–
C/C(=C\C=C\[C@@H](C)CCC(=O)N1CCCC1)[C@H]1OC(=O)C[C@H](O)CC[C@@](C)(O)[C@@H](OC(=O)N2CCN(C)CC2)/C=C/[C@@H]1C	–	–	26.4 nM	-87.3%	27.3 nM	> 1000 nM	4.36 nM	–
CC(=O)O[C@H]1/C=C/[C@H](C)[C@@H](/C(C)=C/C=C/Cc2ccccn2)OC(=O)C[C@H](O)CC[C@@]1(C)O	–	–	559 nM	87.2%	> 10000 nM	> 10000 nM	> 1200 nM	–
C/C(=C\C=C\[C@@H](C)c1ccccn1)[C@H]1OC(=O)C[C@H](O)CC[C@@](C)(O)[C@@H](OC(=O)N2CCN(C3CCOCC3)CC2)/C=C/[C@@H]1C	–	–	53.1 nM	-87.7%	37.2 nM	> 1000 nM	8.56 nM	–
C/C(=C\C=C\C(C)c1cc(C)ccn1)[C@H]1OC(=O)C[C@H](O)CC[C@@](C)(O)[C@@H](OC(=O)N2CCN(C3CCCCCC3)CC2)/C=C/[C@@H]1C (stereo partly drawn)	–	–	58.7 nM	-92.4%	59.9 nM	> 1000 nM	6.79 nM	–
C/C(=C\C=C\[C@@H](C)COC(=O)N1CCCC1)[C@H]1OC(=O)CCCC[C@@](C)(O)[C@@H](OC(=O)N2CCN(C)CC2)/C=C/[C@@H]1C	–	–	4.92 nM	-91.4%	2.38 nM	> 1000 nM	1.67 nM	–
C/C(=C\C=C/[C@@H](C)COC(=O)N1CC[C@@H](O)C1)[C@H]1OC(=O)C[C@H](O)CC[C@H](C)[C@@H](OC(=O)N2CCN(C)CC2)/C=C/[C@@H]1C	–	–	4.51 nM	-90.4%	6.67 nM	> 1000 nM	2.15 nM	–
CC(=O)O[C@H]1/C=C/[C@H](C)[C@@H](/C(C)=C/C=C/[C@@H](C)COC(=O)N2CCCC2)OC(=O)C[C@H](O)CC[C@@]1(C)O	–	–	4.83 nM	-94.1%	20.1 nM	> 1000 nM	2.75 nM	–
